Laboratory results taken from ChEMBL document CHEMBL1149146, “Synthesis and biological evaluation of new 1,2-dihydro-4-hydroxy-2-oxo-3-quinolinecarboxamides for treatment of autoimmune disorders: structure-activity relationship” (2004).

What was measured:
Assay type in all cases: functional
Mus musculus [1] = test: Inhibition of acute experimental autoimmune encephalomyelitis (aEAE) induced in SJL/N mice at a dose of 5 mg/kg/day, (po/sc) was determined; Inactive
Mus musculus [2] = test: Inhibition of acute experimental autoimmune encephalomyelitis (aEAE) induced in SJL/N mice at a dose of 1 mg/kg/day, (po/sc) was determined; Inactive
Mus musculus [3] = test: Inhibition of acute experimental autoimmune encephalomyelitis in SJL/N mice by 0.2 mg/kg/day p.o./s.c.; conditions: po
Mus musculus [4] = test: Inhibition of acute experimental autoimmune encephalomyelitis (aEAE) in SJL/N mice at a dose of 1 mg/kg/day, (po/sc) was determined
Mus musculus [5] = test: Inhibition of acute experimental autoimmune encephalomyelitis (aEAE) in SJL/N mice at a dose of 5 mg/kg/day, (po/sc) was determined
Mus musculus [6] = test: Inhibition of acute experimental autoimmune encephalomyelitis (aEAE) induced in SJL/N mice at a dose of 5 mg/kg/day was determined
Mus musculus [7] = test: Inhibition of acute experimental autoimmune encephalomyelitis (aEAE) induced in SJL/N mice at a dose of 1 mg/kg/day, (sc) was determined; Inactive
Mus musculus [8] = test: Inhibition of acute experimental autoimmune encephalomyelitis (aEAE) induced in SJL/N mice at a dose of 0.2 mg/kg/day, (sc) was determined; Inactive
Mus musculus [9] = test: Inhibition of acute experimental autoimmune encephalomyelitis (aEAE) induced in SJL/N mice at a dose of 0.2 mg/kg/day, (po/sc) was determined; Inactive
Mus musculus [10] = test: Inhibition of acute experimental autoimmune encephalomyelitis in SJL/N mice by 1 mg/kg/day p.o./s.c.; conditions: route oral
Mus musculus [11] = test: Inhibition of acute experimental autoimmune encephalomyelitis in SJL/N mice by 5 mg/kg/day p.o./s.c.; conditions: route oral

For `COc1ccc(N(C)C(=O)c2c(O)c3ccccc3n(C3CC3)c2=O)cc1`, the inhibition in vivo at 5 mg/kg/day (Mus musculus [1]) was less than 35% and the inhibition in vivo at 1 mg/kg/day (Mus musculus [2]) was less than 35%.
Compound `CN(C(=O)c1c(O)c2ccccc2n(C)c1=O)c1ccccc1` [ROQUINIMEX] has an inhibition in vivo at 0.2 mg/kg/day (Mus musculus [3]) of 35%, an inhibition in vivo at 1 mg/kg/day (Mus musculus [4]) of 43% and an inhibition in vivo at 5 mg/kg/day (Mus musculus [5]) of 71%.
`CN(C(=O)c1c(O)c2cccc(F)c2n(C)c1=O)c1ccc(F)cc1` gave an inhibition in vivo at 5 mg/kg/day (Mus musculus [6]) of 55%, an inhibition in vivo at 1 mg/kg/day (Mus musculus [7]) of less than 35% and an inhibition in vivo at 0.2 mg/kg/day (Mus musculus [8]) of less than 35%.
`CCN(C(=O)c1c(O)c2cc(Cl)ccc2n(C)c1=O)c1ccccc1` gave an inhibition in vivo at 0.2 mg/kg/day (Mus musculus [9]) of less than 35%, an inhibition in vivo at 1 mg/kg/day (Mus musculus [10]) of 62% and an inhibition in vivo at 5 mg/kg/day (Mus musculus [11]) of 83%.
